Assay results from article PMC8386747, “Structure–activity relationship, in vitro and in vivo evaluation of novel dienyl sulphonyl fluorides as selective BuChE inhibitors for the treatment of Alzheimer's disease” (Journal of Enzyme Inhibition and Medicinal Chemistry, 2021).
“Also recorded” adds a separate entry of the source.

What was measured:
AChE from electric eel = biological target: T1, AChE from electric eel (Electrophorus electricus, UniProt O42275); assay: EeAChE inhibition assay (Ellman's method); assay type: biochemical; settings: read-out: AChE % inhibition at 20 µM; AChE from electric eel; 20 µM; na = no inhibitory activity at 20 µM
T1 construct: assays were performed on AChE from electric eel (C3389-500UN; Sigma); purchased Sigma C3389-500UN
T1 sequence (O42275 24-633): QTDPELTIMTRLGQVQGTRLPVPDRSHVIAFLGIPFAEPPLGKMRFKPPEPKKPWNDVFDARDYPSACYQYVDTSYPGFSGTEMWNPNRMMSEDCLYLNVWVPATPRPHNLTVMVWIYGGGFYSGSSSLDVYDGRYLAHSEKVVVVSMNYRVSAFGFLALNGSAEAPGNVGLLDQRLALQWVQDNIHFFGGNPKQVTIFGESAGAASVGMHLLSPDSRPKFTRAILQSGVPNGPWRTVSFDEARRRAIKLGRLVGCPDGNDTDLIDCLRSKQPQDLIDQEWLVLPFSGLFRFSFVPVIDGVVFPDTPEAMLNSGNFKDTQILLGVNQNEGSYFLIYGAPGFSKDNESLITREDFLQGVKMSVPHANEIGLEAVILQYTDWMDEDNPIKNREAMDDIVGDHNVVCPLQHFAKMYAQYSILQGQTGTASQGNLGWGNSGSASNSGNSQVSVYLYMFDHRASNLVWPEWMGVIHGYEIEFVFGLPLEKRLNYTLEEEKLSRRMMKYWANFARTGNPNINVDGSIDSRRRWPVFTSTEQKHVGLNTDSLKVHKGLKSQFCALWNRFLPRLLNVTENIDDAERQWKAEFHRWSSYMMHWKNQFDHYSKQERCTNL
Method: (§2) According to the Ellman’s method, assays were performed on AChE from electric eel (C3389-500UN; Sigma) and BuChE from equine serum (C4290-1KU; Sigma). The experiment was performed in 48-well plates in a final volume of 500 µL. Each well contained 0.036 U/mL of eeAChE or eqBuChE, and 0.1 M pH 8 PBS. They were pre-incubated for 20 min at different compound concentrations at 37 °C. […] The DTNB produces the yellow anion 5-thio-2-nitrobenzoic acid along with the enzymatic degradation of ACh or BuCh. Changes in absorbance were measured at 410 nm after 20 min in a PerkinElmer VICTOR Nivo reader. The IC50 values were calculated graphically from inhibition curves (log inhibitor concentration vs percent of inhibition). A control experiment was performed under the same conditions without inhibitor and the blank contained buffer, DMSO, DTNB, and substrate.

BuChE from equine serum = biological target: T2, BuChE from equine serum (Equus caballus, UniProt P81908); assay: eqBuChE inhibition assay (Ellman's method); assay type: biochemical; settings: BuChE from horse serum; mean ± SEM
T2 construct: BuChE from equine serum (C4290-1KU; Sigma); purchased Sigma C4290-1KU; host or cells: equine serum
T2 sequence (P81908 whole entry): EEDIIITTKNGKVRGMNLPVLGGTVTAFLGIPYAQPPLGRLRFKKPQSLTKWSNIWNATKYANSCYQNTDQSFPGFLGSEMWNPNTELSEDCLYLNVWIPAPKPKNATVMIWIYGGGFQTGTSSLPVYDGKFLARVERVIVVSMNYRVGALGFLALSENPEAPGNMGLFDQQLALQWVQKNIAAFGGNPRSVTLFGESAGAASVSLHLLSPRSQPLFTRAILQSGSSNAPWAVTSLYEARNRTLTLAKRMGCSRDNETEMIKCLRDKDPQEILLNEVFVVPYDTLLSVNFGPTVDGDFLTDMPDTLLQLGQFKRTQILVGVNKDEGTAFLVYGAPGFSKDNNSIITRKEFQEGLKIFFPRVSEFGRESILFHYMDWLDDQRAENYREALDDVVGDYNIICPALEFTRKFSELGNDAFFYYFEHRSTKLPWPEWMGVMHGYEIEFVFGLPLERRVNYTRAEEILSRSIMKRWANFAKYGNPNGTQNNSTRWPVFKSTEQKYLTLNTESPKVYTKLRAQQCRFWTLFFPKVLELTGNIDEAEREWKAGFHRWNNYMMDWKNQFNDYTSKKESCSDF
Method: as §2

[1] = biological target: T3, recombinant human AChE (hAChE) (Homo sapiens, UniProt P22303); assay: hAChE inhibition assay (Ellman's assay); assay type: biochemical
T3 construct: purchased Sigma C1682
T3 sequence (P22303 32-614): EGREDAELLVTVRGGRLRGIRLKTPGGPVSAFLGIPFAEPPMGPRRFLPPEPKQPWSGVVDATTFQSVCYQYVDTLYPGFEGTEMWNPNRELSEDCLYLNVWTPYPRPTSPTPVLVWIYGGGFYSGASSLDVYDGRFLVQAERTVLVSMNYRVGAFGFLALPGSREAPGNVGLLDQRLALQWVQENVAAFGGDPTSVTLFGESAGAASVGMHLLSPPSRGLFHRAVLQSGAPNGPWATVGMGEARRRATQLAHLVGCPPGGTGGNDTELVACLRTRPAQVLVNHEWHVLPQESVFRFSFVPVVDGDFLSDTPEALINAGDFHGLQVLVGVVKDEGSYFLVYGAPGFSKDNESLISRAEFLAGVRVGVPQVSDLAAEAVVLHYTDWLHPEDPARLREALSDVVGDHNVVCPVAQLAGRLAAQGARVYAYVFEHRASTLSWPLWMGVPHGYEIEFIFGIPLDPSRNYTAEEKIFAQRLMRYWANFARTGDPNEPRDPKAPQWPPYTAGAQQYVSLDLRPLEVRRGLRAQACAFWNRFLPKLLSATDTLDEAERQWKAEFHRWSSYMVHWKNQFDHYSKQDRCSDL
Method: The solution was diluted to 5 concentrations of 200, 100, 10, 1 and 0.1 µM in ethanol. Measurements were performed using 96-well plates. Buffer (40 µL), sample at a series of concentrations (10 µL), AChE (10 µL), and dibutyl succinate (20 µL) were successively added. The mixture was then incubated for 5 min at 37 °C. Then, 20 µL of ACh or BuCh were added and the reaction started. […] For the blank value, 10 µL of water was used instead of the inhibitor solution. The activity of the inhibitor was expressed as a logarithmic plot of the percentage of enzyme activity (with 100% as the reference) versus the concentration of the compound. IC50 values were determined graphically from inhibition curves (log inhibitor concentration versus percent inhibition).

[2] = biological target: T4, BuChE from human serum (hBuChE) (Homo sapiens, UniProt P06276); assay: hBuChE inhibition assay (Ellman's assay); assay type: biochemical; settings: mean ± SEM
T4 construct: BuChE from human serum (hBuChE); purchased Sigma B4186; host or cells: human serum
T4 sequence (P06276 29-602): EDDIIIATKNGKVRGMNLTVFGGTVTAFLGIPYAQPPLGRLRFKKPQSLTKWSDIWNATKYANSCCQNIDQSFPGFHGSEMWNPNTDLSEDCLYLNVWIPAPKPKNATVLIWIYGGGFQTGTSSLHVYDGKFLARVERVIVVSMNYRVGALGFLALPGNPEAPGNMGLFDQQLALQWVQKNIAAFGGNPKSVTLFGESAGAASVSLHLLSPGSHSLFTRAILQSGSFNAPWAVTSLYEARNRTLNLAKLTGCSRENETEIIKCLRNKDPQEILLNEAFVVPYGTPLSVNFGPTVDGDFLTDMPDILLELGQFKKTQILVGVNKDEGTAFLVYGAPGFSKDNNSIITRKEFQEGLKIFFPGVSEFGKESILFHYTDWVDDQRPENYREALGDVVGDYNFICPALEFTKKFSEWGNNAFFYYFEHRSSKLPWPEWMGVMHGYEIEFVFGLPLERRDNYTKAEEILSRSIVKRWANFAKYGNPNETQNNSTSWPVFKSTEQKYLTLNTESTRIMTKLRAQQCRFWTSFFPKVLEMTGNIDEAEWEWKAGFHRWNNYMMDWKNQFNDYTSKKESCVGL

eqBuChE = biological target: T5, eqBuChE (Equus caballus, UniProt P81908); assay: Kinetic study of eqBuChE inhibition; assay type: biochemical, horse
T5 construct: BuChE from equine serum (C4290-1KU; Sigma); purchased Sigma C4290-1KU; host or cells: equine serum
T5 sequence (P81908 whole entry): as the sequence (P81908 whole entry) above
Method: Kinetic studies were performed with the same test conditions, using six concentrations of substrate (0.1‒1 mM) and four concentrations of inhibitor (0‒0.08 mM). The apparent inhibition constants and kinetic parameters were calculated in the “Enzyme Kinetics” module of Prism8. The effect of compound A10 concentration on the catalytic activity of BuChE at 37 °C was investigated. Assay conditions were same as described in the assay protocol except that the final concentration of enzyme was varied (0‒0.72 U/mL). Concentrations of compound A10 were 0, 0.02, 0.04, 0.08 µM respectively, for the determination of reversible as well as irreversible binding of inhibitors at enzyme.

[3] = test system: human normal hepatocyte L02; assay: Cytotoxicity MTT assay on L02 cells; assay type: cell-based; settings: 24 h
Method: (§1) The cytotoxic effect was detected by MTT colorimetric assay. Human hepatoblastoma cells HepG2 and human normal hepatocyte L02 were maintained at 37 °C in a 5% humidified incubator containing 10% foetal bovine serum, 100 U/mL penicillin and […] streptomycin. HepG2 cells and L02 cells were seeded in 96-well plates at 1 × 10^4 cells per well. After cell culture for 24 h, different compounds were diluted in DMEM for 24 h. […] of 5 mg/mL MTT reagent was added for incubation for 4 h. After 4 h, the cell culture medium was removed and […] of DMSO was added to dissolve formazan. The optical density was measured at 492 nm (OD492). Cell viability was calculated from three independent experiments. The density of formazan formed in blank group was set as 100% of viability. Cell viability (%) ¼ compound (OD492/blank (OD492) ×100%

[4] = test system: human hepatoblastoma cells HepG2; assay: Cytotoxicity MTT assay on HepG2 cells; assay type: cell-based; settings: 24 h
Method: as §1

PC12 cells = assay: Neuroprotection assay against H2O2 damage; assay type: cell-based; settings: PC12, 100 µM H2O2 (model 47.3%), not given
ICR mice = assay: In vivo acute toxicity evaluation; parameters: species or system mouse
Method: […]. Compound A10 was suspended in a mixture of DMSO, PEG 400 and physiological saline (10/50/40, v/v/v). After fasting for 8‒12 h, the mice were intragastrically administered with the preparation or test compound A10 1.0 g/kg on the first day. The behaviour, appearance and body weight changes of the mice were observed and recorded for 2 weeks. The body weights of the mice in the control group and experimental group were compared and summarised with GraphPadPrism8.0 software.

[5] = test system: Aβ1-42-induced cognitive dysfunction; assay: Morris water maze in Aβ1-42-induced cognitive impairment model; assay type: in vivo, mouse; settings: mice, 10 mg/kg po Day 3 to Day 14
Method: All experiments were performed according to the National Institutes of Health Guide for the Care and Use of Laboratory Animals. The Measures for the Care and Treatment of Laboratory Animals were approved by the Animal Care and Use Committee of Anhui Medical University. Male ICR mice were used in the animal centre of Anhui Medical University (Hefei). Male mice (18‒24 g) aged 6‒8 weeks, 10 mice per cage, room temperature 22 ± 2 °C, light/dark (12:12 h) cycle. These animals had access to food and water prior to testing. The ambient temperature and relative humidity (50%) of the room remained consistent throughout all tests. Behavioural experiments: MWM was used for cognitive function, and mice were randomly selected for behavioural experiments. Each experimental group consisted of 8‒10 mice/dose. The experimental time was from 08:00 to 14:00, and the mice were sacrificed by cervical dislocation immediately after the end of the experiment. […]. Aβ1-42 aggregation was induced by dissolving the Aβ1-42 peptide in DMSO as a stock solution of 5 mM and incubating it in saline at a final concentration of 2 mg/mL for 24 h at 37 °C.
The behavioural study was a water maze experimental behavioural study on days 10 − 15, including a 5-day learning and memory training, and a test assessment on day 6. MWM consists of a water-filled pool (grey, circular, 1.20 m in diameter, 0.60 m in height) and a platform with adjustable height and movable position. The pool was divided into four equal quadrants (compass position: NE, NW, SE, SW) using a computerised video tracking system (SMART, version 3.0; Panlab, Spain). The pool was filled with water, generally about 48 cm below the edge, to prevent animals from jumping out, and the water temperature was maintained at 22 ± 1 °C. […] The time to reach the hidden platform (i.e. escape latency), the distance to reach the hidden platform, the distance in the target (NW) area, and the average speed were recorded. […]

Aβ1-42 = assay type: in vivo, mouse; settings: mice, Aβ1-42 icv; 10 mg/kg po; vs model group
Method: In the experiment of Aβ1-42 oligomeric injury, all mice were sacrificed after the end of behavioural study, and the brains were taken to determine the total content of Aβ1-42 with a mouse ELISA kit (Wuhan Huamei Biotechnology Co., Ltd.). Each brain tissue specimen was completely homogenised with a grinder with 10 times PBS (pH = 7.4 ± 0.1) and then centrifuged at 5000×g for 5 min. The supernatant was separated for use. Brain tissue Aβ1-42 content was calculated according to the linear regression equation.

[6] = PAMPA-BBB class
Method: (§3) The 96-well UV plate (COSTAR) was manufactured by Corning Corporation, USA, and the commercially available drugs and test compounds were initially dissolved in DMSO at a concentration of 20 mg/mL. The solution was then diluted 200-fold with PBS (pH 7.4 ± 0.1)/EtOH (70/30, v/v) solution to a final concentration of 100 µg/mL.
(§4) The test compound was dissolved in DMSO at 5 mg/mL and diluted 200-fold with universal buffer (final concentration 25 µg/mL) to prepare the secondary stock solution; 200 µL of the secondary stock solution was added to the donor well; the acceptor plate was coated with 4 µL of 20 mg/mL dodecyl porcine polar brain, and then, 200 µL of pH 7.4 universal buffer was added to the acceptor well; the acceptor plate was carefully placed on the donor plate to form a “sandwich” and maintained for 18 h; the drug concentrations in the acceptor, donor and reference wells were determined using a UV microplate reader; the experiment was repeated three times, and the concentrations of the test compound in the donor and acceptor wells were measured using a UV plate spectral reader (PerkinElmer VICT or Nivo, Finland). In at least three independent experiments, each sample was analysed at three wavelengths in a four well.

in vitro = settings: PAMPA, PAMPA-BBB
Method: as §3, §4

male ICR mice = assay: In vivo hepatotoxicity evaluation
Method: The combination was administered intragastrically at a dose of 30 mg/kg body weight and the same amount of vehicle (po). Heparinised serum was collected from the retrobulbar plexus at 8, 22, and 36 h after administration for hepatotoxicity evaluation. The activities of alanine aminotransferase (ALT) and aspartate aminotransferase (AST), indicators of liver injury, were measured with corresponding kits (EF551 and EF550 for ALT, EH027 and EH548 for AST). […] After the last collection of post-globular blood, mice were sacrificed and livers were taken for immunohistochemical morphological observation. We isolated two 3-mm sections of each liver from the hilum to the edge of the left lateral lobe using an ultra-thin semi-automatic microtome (LeicaRM2245, Germany), immediately placed them in 10% buffered formaldehyde, fixed them for 2 days, and embedded them in paraffin blocks using a paraffin-embedding station (LeicaEG1150H, Germany). Subsequently, five µM sections were prepared from these paraffin sections, deparaffinized, stained with haematoxylin and eosin or using the periodic acid-Schiff glycogen staining method.

[7] = 30 mg/kg intragastric, 8, 22 and 36 h

Molecule `COc1ccccc1C=CC=C(Br)S(=O)(=O)F` [Compound A10] has an inhibition at 20 µM (AChE from electric eel) of 40.8 ± 3.3%, an IC50 (BuChE from equine serum) of 21 nM and an inhibition at 20 µM [1] of 49.7 ± 2.7%. The IC50 [2] was 3620 ± 320 nM, the “type of BuChE inhibition” value (eqBuChE; Lineweaver–Burk plot, eqBuChE) was “mixed competitive; also recorded: mixed inhibition” and the “reversibility of BuChE inhibition” value (eqBuChE; enzyme activity vs enzyme concentration, 0–0.08 µM inhibitor) was “reversible”. For the same molecule, the Ki (eqBuChE; eqBuChE, Lineweaver–Burk secondary plot, read-out: dissociation constant Ki) was 29 nM, the cell survival rate ([3]; 50 µM) was 87.1% and the cell survival rate ([3]; 10 and 25 µM) was “did not decrease”. For the same molecule, the cell survival rate ([4]; 50 µM) was 85.6%, the cell survival rate ([4]; 10 and 25 µM) was “did not decrease” and the cell survival rate (PC12 cells; first (lower) of the A10 concentrations) was 63.3%. For the same molecule, the cell survival rate (PC12 cells; second (higher) of the A10 concentrations) was 71.8%, the “general condition, appearance and activity” value (ICR mice; 1.0 g/kg intragastric) was “no significant change in appearance and activity” and the “difference of body weight changes vs vehicle group” value (ICR mice; ICR mice, 1.0 g/kg intragastric, 14 days) was “not significant”. The tolerability in vivo (ICR mice; ICR mice, single intragastric dose 1.0 g/kg, 14 days) was “well tolerated”, the “body weight gain during treatment” value [5] was “did not affect” and the “effect on Aβ1-42-induced cognitive dysfunction (MWM)” value ([5]; Aβ1-42 10 µg icv, 10 mg/kg) was “significantly improved; also recorded: improved the cognitive impairment”. The “decrease of brain Aβ1-42 peptides” value (Aβ1-42) was 20.6%, the BBB penetration [6] was “CNS+ (“CNS +” (high BBB permeation): Pe (× 10^‒6 cm/s) >4.0)” and the Papp (in vitro; pH 7.4, Pe) was 13.7 ×10⁻⁶ cm/s. The Papp (in vitro; pH 7.4, Pe×10^-6cm/s Exp. value, three independent experiments) was 13.4 ×10⁻⁶ cm/s, the “serum ALT vs vehicle group” value (male ICR mice; [7]) was “no significant difference” and the “serum AST vs vehicle group” value (male ICR mice; [7]) was “no significant difference”. The liver histomorphology (male ICR mice; 30 mg/kg, 36 h after administration) was “didn’t show central necrosis or significant steatosis”.
